Laboratory results as given in ChEMBL document CHEMBL1201862, “PubChem BioAssay data set” (2004).
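Compound exposure: 48 hours, 5 concentrations, 96-well plates. Here, GI50 denotes the concentration required for 50% inhibition of growth.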 Calls of active or inactive are those of the source. Cut-off read from the data, not from the text of the source: active = GI50 up to about 1.1 µM and inactive = higher.

Columns and labels:
Assay in all cases: NCI tumour cell line growth inhibition, 48 h
[1] = tested on: A549
[2] = tested on: NCI/ADR-RES
[3] = tested on: HCT-116
[4] = tested on: SK-MEL-2
[5] = tested on: SNB-75
[6] = tested on: MOLT-4
[7] = tested on: K562
[8] = tested on: T47D
[9] = tested on: OVCAR-4
[10] = tested on: CAKI-1
[11] = tested on: CCRF-CEM
[12] = tested on: SK-MEL-5
[13] = tested on: MDA-MB-435
[14] = tested on: KM12
[15] = tested on: HCT-15
[16] = tested on: NCI-H460
[17] = tested on: DU-145
[18] = tested on: 786-0
[19] = tested on: SNB-19
[20] = tested on: NCI-H23
[21] = tested on: NCI-H522
[22] = tested on: OVCAR-3
[23] = tested on: RPMI-8226
[24] = tested on: Malme-3M
[25] = tested on: PC-3
[26] = tested on: IGROV-1
[27] = tested on: HOP-92
[28] = tested on: SN12C
[29] = tested on: U-251
[30] = tested on: HT-29
[31] = tested on: TK-10
[32] = tested on: SF-295
[33] = tested on: Hs-578T
[34] = tested on: OVCAR-8
[35] = tested on: EKVX
[36] = tested on: COLO 205
[37] = tested on: SK-OV-3
[38] = tested on: NCI-H226
[39] = tested on: MDA-MB-231
[40] = tested on: ACHN
[41] = tested on: OVCAR-5
[42] = tested on: HOP-62
[43] = tested on: SF-539
[44] = tested on: UACC-62
[45] = tested on: SW-620
[46] = tested on: MCF7
[47] = tested on: A498
[48] = tested on: M14
[49] = tested on: RXF 393
[50] = tested on: LOX IMVI
[51] = tested on: UACC-257
[52] = tested on: SF-268
[53] = tested on: SK-MEL-28
[54] = tested on: BT-549
[55] = tested on: UO-31
[56] = tested on: MDA-N
[57] = tested on: SR
[58] = tested on: HCC 2998
[59] = tested on: HL-60

C=Cn1c([N+](=O)[O-])cnc1/C=C/c1ccc(C(=O)OCCN2CCOCC2)cc1
GI50 [1]: > 100 µM (inactive) | GI50 [2]: > 100 µM (inactive) | GI50 [3]: > 100 µM (inactive) | GI50 [4]: > 100 µM (inactive) | GI50 [5]: > 100 µM (inactive) | GI50 [6]: 38 µM (inactive) | GI50 [7]: > 100 µM (inactive) | GI50 [8]: > 100 µM (inactive) | GI50 [9]: > 100 µM (inactive) | GI50 [10]: > 100 µM (inactive) | GI50 [11]: > 100 µM (inactive) | GI50 [12]: 51.9 µM (inactive) | GI50 [13]: > 100 µM (inactive) | GI50 [14]: > 100 µM (inactive) | GI50 [15]: > 100 µM | GI50 [16]: > 100 µM (inactive) | GI50 [17]: > 100 µM (inactive) | GI50 [18]: > 100 µM (inactive) | GI50 [19]: > 100 µM (inactive) | GI50 [20]: > 100 µM (inactive) | GI50 [21]: > 100 µM (inactive) | GI50 [22]: > 100 µM (inactive) | GI50 [23]: 12 µM (inactive) | GI50 [24]: 61 µM (inactive) | GI50 [25]: > 100 µM (inactive) | GI50 [26]: > 100 µM (inactive) | GI50 [27]: > 100 µM (inactive) | GI50 [28]: > 100 µM (inactive) | GI50 [29]: > 100 µM (inactive) | GI50 [30]: > 100 µM (inactive) | GI50 [31]: > 100 µM (inactive) | GI50 [32]: > 100 µM (inactive) | GI50 [33]: 88.1 µM (inactive) | GI50 [34]: > 100 µM (inactive) | GI50 [35]: > 100 µM (inactive) | GI50 [36]: > 100 µM (inactive) | GI50 [37]: > 100 µM (inactive) | GI50 [38]: > 100 µM (inactive) | GI50 [39]: > 100 µM (inactive) | GI50 [40]: > 100 µM (inactive) | GI50 [41]: > 100 µM (inactive) | GI50 [42]: > 100 µM (inactive) | GI50 [43]: > 100 µM (inactive) | GI50 [44]: > 100 µM (inactive) | GI50 [45]: > 100 µM (inactive) | GI50 [46]: > 100 µM (inactive) | GI50 [47]: 75.5 µM (inactive) | GI50 [48]: > 100 µM (inactive) | GI50 [49]: > 100 µM (inactive) | GI50 [50]: > 100 µM (inactive) | GI50 [51]: > 100 µM (inactive) | GI50 [52]: > 100 µM (inactive) | GI50 [53]: > 100 µM (inactive) | GI50 [54]: > 100 µM (inactive)

CC12CCC(=O)N1c1cncnc1N2 (stereo not drawn)
GI50 [1]: > 10 µM (inactive) | GI50 [2]: > 10 µM (inactive) | GI50 [3]: > 10 µM (inactive) | GI50 [4]: > 10 µM (inactive) | GI50 [5]: > 10 µM (inactive) | GI50 [6]: > 10 µM (inactive) | GI50 [7]: > 10 µM (inactive) | GI50 [9]: > 10 µM (inactive) | GI50 [55]: > 10 µM (inactive) | GI50 [11]: > 10 µM (inactive) | GI50 [13]: > 10 µM (inactive) | GI50 [14]: > 10 µM (inactive) | GI50 [15]: > 10 µM | GI50 [16]: > 10 µM (inactive) | GI50 [17]: > 10 µM (inactive) | GI50 [18]: > 10 µM (inactive) | GI50 [19]: > 10 µM (inactive) | GI50 [20]: > 10 µM (inactive) | GI50 [21]: > 10 µM (inactive) | GI50 [22]: > 10 µM (inactive) | GI50 [24]: > 10 µM (inactive) | GI50 [25]: > 10 µM (inactive) | GI50 [26]: > 10 µM (inactive) | GI50 [27]: > 10 µM (inactive) | GI50 [28]: > 10 µM (inactive) | GI50 [56]: > 10 µM (inactive) | GI50 [29]: > 10 µM (inactive) | GI50 [30]: > 10 µM (inactive) | GI50 [31]: > 10 µM (inactive) | GI50 [32]: > 10 µM (inactive) | GI50 [33]: > 10 µM (inactive) | GI50 [34]: > 10 µM (inactive) | GI50 [57]: > 10 µM (inactive) | GI50 [35]: > 10 µM (inactive) | GI50 [37]: > 10 µM (inactive) | GI50 [38]: > 10 µM (inactive) | GI50 [40]: > 10 µM (inactive) | GI50 [41]: > 10 µM (inactive) | GI50 [43]: > 10 µM (inactive) | GI50 [44]: > 10 µM (inactive) | GI50 [45]: > 10 µM (inactive) | GI50 [46]: > 10 µM (inactive) | GI50 [48]: > 10 µM (inactive) | GI50 [50]: > 10 µM (inactive) | GI50 [58]: > 10 µM (inactive) | GI50 [59]: 0.0374 µM (active) | GI50 [51]: > 10 µM (inactive) | GI50 [52]: > 10 µM (inactive) | GI50 [54]: > 10 µM (inactive)
